Like-named read-outs stand apart in the source and are kept apart here.
Columns and labels:
[1] = target: RET phosphorylation of the tyrosine at position 905 (pRET(Y905)) (Homo sapiens (Human), UniProt P07949+Q16204); experiment: RET phosphorylation (Y905) in LC-2/ad xenograft tumors, Western blotting; type: in vivo, NOG mice; conditions: tumor collected two and six hours after final administration (FIG. 2)
Text: (§1) Cells of a non-small cell lung cancer cell line LC-2/ad (RIKEN, J Thorac Oncol. 2012 December, 7(12), 1872-6) suspended in DPBS (Gibco, #14190) were mixed with an equal amount of Corning Matrigel Basement Membrane Matrix (Corning, #354234), and the obtained mixture was then subcutaneously transplanted into NOG mice to form a tumor. (The NOG mice were acclimatized after they had been received from In Vivo Science Inc., and thereafter, the cells were transplanted into the mice when the mice were 9 week olds. As feedstuff, FR-2 (manufactured by Funabashi Farm Co., Ltd.) was used.) After the tumor had reached a size of 100 to 200 mm^3, the mice were randomized based on tumor diameter, and oral administration of the compound of Example 4 (hereinafter referred to as Compound A) was then initiated. As a solvent for dissolving Compound A, 1% hydroxypropyl methyl cellulose was used. […] Moreover, the tumor was collected (no administration was carried out on the Vehicle group) two hours and six hours after the final administration of Compound A, and the RET phosphorylation of the tyrosine at position 905 used as an indicator of RET kinase activity (pRET(Y905), Nature Medicine, 18, 375-377 (2012)) was then detected by the Western blotting method.

[2] = test system: thyroid gland cancer cell line TT having RET activating mutation (C634W); experiment: Cell growth inhibitory activity, thyroid gland cancer cell line TT; type: cell-based; conditions: Homo sapiens, 216 h; TT cells, 9 days, CellTiter-Glo
Description: The cell growth inhibitory activity of the test compound on the thyroid gland cancer cell line TT having RET activating mutation (C634W) (Biochemical and Biophysical Research Communications. 1995 Feb. 27 (207), 1022-1028) was measured.
TT cells were seeded on a 96-well plate at a cell density of 5,000 cells per well, and were then cultured at 37° C. in the presence of 5% CO2 overnight in an F-12K nutrient mixture medium containing 10% FBS. Thereafter, the compound was diluted, and then added to the 96-well plate. As a negative control, dimethyl sulfoxide (hereinafter referred to as DMSO) was added. The obtained mixture was cultured at 37° C. in the presence of 5% CO2 for 9 days, and thereafter, a cell count measuring reagent CellTiter-Glo® Luminescent Cell Viability Assay was added to the culture, followed by stirring the mixture. Thereafter, using a luminescence measurement device Envision (Perkin Elmer), the luminescence intensity was measured. The measurement value of a well to which only the medium had been added was define as a survival rate of 0%, and the measurement value of a well to which DMSO had been added was defined as a survival rate of 100%. The survival rate of the TT cells in the presence of each concentration of the test compound was calculated.

[3] = test system: non-small cell lung cancer cell line LC-2/ad xenograft; experiment: Antitumor activity in xenograft model established with LC-2/ad; type: in vivo, NOG mice; conditions: oral
Text: as §1

KDR kinase = KDR kinase (Homo sapiens (Human), UniProt P35968); experiment: Evaluation of KDR kinase inhibiting activity (cell system), HUVEC, AlphaLISA; type: cell-based
Description: HUVEC cells were seeded on a plate at a cell density of 1500 cells per well, and then cultured overnight. The test compound (10 uM, 2.5 uM, 625 nM, 156 nM, […], 10 nM, 2.5 nM, or 0.6 nM) was added to each well, followed by culturing the obtained mixture for 2 hours. Thereafter, VEGF165 (Peprotech, #100-20) was added to the culture at a final concentration of 50 ng/ml, and the obtained mixture was then reacted at 37° C. for 5 minutes. Thereafter, the resulting cells were lysed with 50 ul of Lysis buffer included in AlphaLISA SureFire Ultra (Perkin Elmer, # ALSU-PVGFR-A500), and Acceptor beads and Donor beads were then added to 10 ul of the cell lysate according to the instruction manual included with the aforementioned kit. The mixture thus obtained was reacted at room temperature overnight, and thereafter, a KDR kinase inhibiting activity rate was measured using Envision (Perkin Elmer).
The value for a well to which only the Lysis buffer had been added was subtracted as a background from all of the values. Thereafter, the value for a well to which […] had been added and the test compound had not been added was defined as a KDR kinase activity of 100%, and the obtained value was corrected.

[4] = test system: non-small cell lung cancer cell line LC-2/ad having a CCDC6-RET fusion gene; experiment: Cell growth inhibitory activity, non-small cell lung cancer cell line LC-2/ad; type: cell-based; conditions: Homo sapiens, 216 h; LC-2/ad cells, 9 days, CellTiter-Glo
Description: The cell growth inhibitory activity of the test compound on the non-small cell lung cancer cell line LC-2/ad having a CCDC6-RET fusion gene (RIKEN, J Thorac Oncol. 2012 December, 7(12), 1872-6) was measured.
LC-2/ad cells were seeded on a 96-well plate at a cell density of 5,000 cells per well, and then cultured at 37° C. in the presence of 5% CO2 overnight in a medium prepared by mixing RPMI-1640 containing 15% FBS and 25 mM HEPES with Ham's F12 Mixture at a mixing ratio of 1:1. Thereafter, the test compound was diluted, and then added to the 96-well plate. As a negative control, dimethyl sulfoxide (hereinafter referred to as DMSO) was added. The obtained mixture was cultured at 37° C. in the presence of 5% CO2 for 9 days, and thereafter, a cell count measuring reagent CellTiter-Glo® Luminescent Cell Viability Assay (Promega, # G7571) was added to the culture, followed by stirring the mixture. Thereafter, using a luminescence measurement device Envision, the luminescence intensity was measured. The measurement value of a well to which only the medium had been added was define as a survival rate of 0%, and the measurement value of a well to which DMSO had been added was defined as a survival rate of 100%. The survival rate of the LC-2/ad cells in the presence of each concentration of the test compound was calculated.

KDR kinase, sequence (P35968 20-1356): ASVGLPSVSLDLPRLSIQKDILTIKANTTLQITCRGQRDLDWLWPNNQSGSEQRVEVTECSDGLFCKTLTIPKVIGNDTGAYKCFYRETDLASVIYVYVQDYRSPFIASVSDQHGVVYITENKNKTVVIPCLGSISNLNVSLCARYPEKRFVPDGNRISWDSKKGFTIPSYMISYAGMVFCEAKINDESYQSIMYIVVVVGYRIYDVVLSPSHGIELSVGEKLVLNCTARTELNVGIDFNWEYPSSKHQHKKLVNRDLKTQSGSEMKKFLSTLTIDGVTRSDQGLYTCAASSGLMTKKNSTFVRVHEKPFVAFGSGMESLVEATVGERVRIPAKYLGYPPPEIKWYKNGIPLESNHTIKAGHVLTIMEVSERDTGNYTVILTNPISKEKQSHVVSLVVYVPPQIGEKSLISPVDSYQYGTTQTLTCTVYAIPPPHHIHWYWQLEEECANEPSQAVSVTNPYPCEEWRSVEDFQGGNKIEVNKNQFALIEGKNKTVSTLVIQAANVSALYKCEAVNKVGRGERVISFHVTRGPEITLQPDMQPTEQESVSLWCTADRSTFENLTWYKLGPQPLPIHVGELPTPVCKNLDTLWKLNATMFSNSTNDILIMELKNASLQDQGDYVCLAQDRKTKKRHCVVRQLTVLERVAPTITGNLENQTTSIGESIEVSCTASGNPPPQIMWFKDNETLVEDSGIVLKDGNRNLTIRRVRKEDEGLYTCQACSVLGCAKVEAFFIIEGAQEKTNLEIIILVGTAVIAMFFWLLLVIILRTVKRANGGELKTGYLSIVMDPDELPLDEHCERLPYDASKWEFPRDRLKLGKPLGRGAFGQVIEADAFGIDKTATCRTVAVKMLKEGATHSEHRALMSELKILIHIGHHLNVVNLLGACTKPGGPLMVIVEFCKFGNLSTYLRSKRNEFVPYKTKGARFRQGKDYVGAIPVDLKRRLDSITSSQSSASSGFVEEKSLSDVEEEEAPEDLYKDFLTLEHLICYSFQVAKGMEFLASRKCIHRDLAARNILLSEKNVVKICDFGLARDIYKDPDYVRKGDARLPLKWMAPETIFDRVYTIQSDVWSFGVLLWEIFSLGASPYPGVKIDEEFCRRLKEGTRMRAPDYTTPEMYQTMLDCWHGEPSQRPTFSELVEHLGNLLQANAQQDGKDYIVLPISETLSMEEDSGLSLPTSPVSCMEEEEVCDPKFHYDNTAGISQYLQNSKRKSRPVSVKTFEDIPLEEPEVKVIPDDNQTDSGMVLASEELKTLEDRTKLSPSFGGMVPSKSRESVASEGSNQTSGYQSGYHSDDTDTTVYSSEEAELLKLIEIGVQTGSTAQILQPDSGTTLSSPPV
RET phosphorylation of the tyrosine at position 905 (pRET(Y905)), sequence (P07949 other isoform, or with tags, fused parts or gaps): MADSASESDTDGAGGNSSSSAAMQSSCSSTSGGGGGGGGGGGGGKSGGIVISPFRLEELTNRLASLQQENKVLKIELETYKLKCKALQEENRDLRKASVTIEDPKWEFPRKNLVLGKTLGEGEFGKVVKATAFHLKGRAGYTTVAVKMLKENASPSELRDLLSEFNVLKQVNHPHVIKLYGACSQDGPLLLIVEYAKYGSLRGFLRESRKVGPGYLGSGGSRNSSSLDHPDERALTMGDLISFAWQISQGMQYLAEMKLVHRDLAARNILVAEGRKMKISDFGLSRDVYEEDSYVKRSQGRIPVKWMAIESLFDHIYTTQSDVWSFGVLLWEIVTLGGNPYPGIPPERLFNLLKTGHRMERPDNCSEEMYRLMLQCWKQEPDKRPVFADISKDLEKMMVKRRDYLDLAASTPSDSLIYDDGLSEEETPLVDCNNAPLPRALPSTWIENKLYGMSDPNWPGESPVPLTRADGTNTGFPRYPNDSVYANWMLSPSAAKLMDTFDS

COc1cc2cc(-c3ccc(CC(=O)Nc4cc(C(C)(C)C(F)(F)F)no4)cn3)cnc2cc1OC [Example 4, 2-[6-(6,7-Dimethoxyquinolin-3-yl)pyridin-3-yl]-N-[3-(1,1,1-trifluoro-2-methylpropan-2-yl)-1,2-oxazol-5-yl]acetamide Methanesulfonate]
suppression of the phosphorylation of Y905 (pRET(Y905)) [1]: dose-dependent suppression of the phosphorylation of Y905
IC50 [2]: 6 nM
tumor regression ([3]; 3 mg/kg or 1 mg/kg three times a day for 9 days (FIG. 1)): dose-dependent tumor regression
reduction in body weight ([3]; 3 mg/kg or 1 mg/kg three times a day for 9 days, compared to Vehicle group): no significant reduction in body weight
IC50 (KDR kinase; KDR, HUVEC cells, VEGF165 50 ng/ml, compound 2 hours, read-out: IC50): 298 nM
IC50 (KDR kinase; cell system, Form: Mesylate, read-out: IC50 (nM) KDR): 287 nM
IC50 [4]: 49 nM

— patent US10851092B2, “Pyridine compound” (Daiichi Sankyo Company, Limited, priority 2016, dated 2020)
